Data reported in patent publication US9107879B1, “Methods of increasing the cytotoxicity of chemotherapeutic agents with multisubstrate inhibitors of histone, protein-lys, polyamine acetylation, and polyamine metabolism” (Vanderbilt University, priority 2010, dated 2015).

Tests used:
H358 lung cancer cells = test: [3H]-thymidine incorporation DNA synthesis assay; type: cell-based; settings: Homo sapiens, NCI-H358; Example 1: 50 μM 1a (continuous) + 5 nM camptothecin (24 h); 48 hours post treatment; read-out: DNA synthesis rate, % of control rate
[1] = test system: normal GT41F human skin fibroblast cells; test: [3H]-thymidine incorporation DNA synthesis assay; type: cell-based; settings: 1a 50 μM; camptothecin 5 nM 18 hours
Excerpt: Cells were either labeled immediately before treatment (starting DNA synthesis rate), or subjected to the indicated treatments and then pulsed on successive days until day 4. DNA synthesis is represented as the percent of starting DNA synthesis rate.
The present inventors used a 96-well viability assays as described in Saadatmandi et al (Cancer Gene Therapy (2002) 9:930-9) to examine the effect of the spermidine-CoA inhibitor disclosed previously on DNA synthesis in normal GT41F human skin fibroblast cells, as well as its combined effect with camptothecin. GT41F cells were plated in 96-well plates at 3000 cells per well. […] Following the 6-hour labeling, cells were harvested and incorporation of [^3H]-thymidine was determined by scintillation counting.

[2] = test system: DU145 prostate cancer cells; type: cell-based; settings: camptothecin 5 nM; 2a 10 μM
Description: (§1) Cells were plated in 96-well plates at 2000 cells per well and treated with the indicated doses of spd-3a. Cell viability was measured by the MTS assay 3 days later.

γ-H2A.X in H358 cells = test: double strand break / gamma-H2A.X Western and co-immunoprecipitation; type: cell-based; settings: 18 hours post-start; 1a 50 μM, 5FU 2 μM, cisplatin 2 μM, camptothecin 5 nM
Description: Also shown are controls for no treatment (“c” minus 1a) or treatment with 1a only (“c” plus 1a). Each lane represents 60 μg protein. […] Each lane represents 60 μg protein.
To measure DSB repair, cells were incubated for 1 hour with 10 μM camptothecin to induce DSBs, followed by incubation in the presence or absence of 50 μM 1a. At fixed times, histones were prepared by extraction in 0.2M H2SO4 as described previously and 50 μg extract was analyzed by 12% SDS-PAGE followed Western analysis as described previously, using rabbit polyclonal anti-γ-H2A.X [phosphor ser 139] (Novus Biologicals, Littleton, Colo.) or anti-H3 (Upstate Biotechnology, Inc, Lake Placid, N.Y.). Band intensities were quantitated digitally. To study acetylation of γ-H2A.X, we carried out co-immunoprecipitation analysis using 50 μg extract protein in immunoprecipitation buffer (10 mM sodium phosphate pH 7, 0.15 M NaCl, 0.1% SDS, 1% NP40, 1% sodium deoxycholate, aprotinin, 1 mM PMSF, complete protease inhibitors (Roche) using immobilized anti-acetyl-lysine (Millipore, Temecula, Calif.) in the immunoprecipitation step. The immunoprecipitated material was then analyzed as for Western analysis using anti γ-H2A.X.
Double strand breaks (DSBs) can be formed by a variety of DNA damaging agents, including camptothecin, cisplatin, 5FU, and UVC radiation (Avemann K, et al., 1988, Mol Cell Biol, 8: 3026-34; Bogdanov K V, et al. 1997, Br J Haematol, 98:869-72; Pavon M A, et al., Int J Cancer, 2008, 123:1068-79) implying that DSB repair may play a role in reducing their cellular toxicity. To examine how 1a treatment affects DSB repair in H358 cells we made use of the fact that the histone variant, H2A.X becomes phosphorylated at sites of double strand breaks (denoted γ-H2A.X), and can be detected by immunoblot analysis of acid extracted cells (Rogaku E P, et al., 1999, J Cell Biol, 146:905-16). […] Total H3 levels and H2A.X levels (control) are unaffected by these treatments (FIG. 4B). […]

[3] = test system: DU 145 prostate cancer cells; test: gamma-H2A.X immunofluorescence; type: cell-based; settings: 8 hours, 5 nM camptothecin alone
Excerpt: The immuno fluorescence images on the left and right sides of the middle scheme illustrate this visually. […] Cells were fixed and stained with a rabbit antibody to the histone variant, γ-H2A.X, a marker for DNA double stranded breaks, followed by staining with a fluorescein (FITC)-tagged goat anti rabbit secondary antibody. Nuclei were stained with Hoescht 33345.

[4] = 5 mM, approximately 10 mg/kg, twice per week for 3 weeks
Description: They injected a second set of 4 mice with 100 μl of spd-3a (5 mM, approximately 10 mg/kg, or about 0.25 mM initial blood concentration), twice per week for 3 weeks.

[5] = test system: endogenous HATs associated with solubilized chromatin; settings: literature (Bandyopadhyay et al 2009; Parello et al. 1990); cited from earlier work
DLD-1 colon cancer cells = test: 96-well MTS viability assay; type: cell-based; settings: 3 days
Description: as §1
DLD-1 cells or H358 cells were plated in 96-well plates at 2000 cells per well and treated with the indicated doses of (A) spm-3 or (B) spm-2. (C) Cell viability was measured by the MTS assay 3 days later. Similar experiment using GT41 fibroblasts with spm2 or spm 3. Each assay point represents an average of duplicates.

CC(C)(COP(=O)(O)OP(=O)(O)OC[C@H]1O[C@@H](n2cnc3c(N)ncnc32)[C@H](O)[C@@H]1OP(=O)(O)O)[C@@H](O)C(=O)NCCC(=O)NCCSCC(=O)NCCCNCCCCN [1a, spermidine[N1]-CoA]
activity at 50 µM (H358 lung cancer cells): ~10%

CC[C@@]1(O)C(=O)OCc2c1cc1n(c2=O)Cc2cc3ccccc3nc2-1 [camptothecin]
effect on incorporation of [3H]-thymidine, single agent [1]: virtually no effect | effect on cell viability, single agent [2]: minimal effects | γ-H2A.X level, single agent (γ-H2A.X in H358 cells): weakly detectable | DNA damage by γ-H2A.X staining, single agent [3]: minimal damage

CC(=O)NCCSCC(=O)NCCCNCCCCN [3a]
body weight [4]: did not lose weight | signs of toxicity ([4]; 4 mice): no signs of distress or illness | inhibitory activity against endogenous HAT [5]: lower inhibitory effect than Spd-2a

CC(=O)NCCSCC(=O)NCCCNCCCCNCCCN [spm-3]
suppression of cell growth and viability, single agent (DLD-1 colon cancer cells): effective as single agents
